Earlier results as cited in patent publication US12605434B2, “Composition for preventing or treating autoimmune diseases” (STATENS SERUM INSTITUT, priority 2021, dated 2026).

System: Th17 polarization

## CC1=C(/C=C/C(C)=C/C=C/C(C)=C/C(=O)O)C(C)(C)CCC1 [ATRA, all-trans retinoic acid]
Elias_2008, Kwok_2012
  FoxP3 expression: enhancing FoxP3 expression
  Th17 polarization: inhibit the Th17 polarization
Mucinda_2007
  RORγT in T cells: reduction of RORγT
